Laboratory results taken from the NIST ThermoML archive (doi:10.1021/je700190m).
Numbers after ± are expanded uncertainties.

Assay: wn = mass fraction of the nth substance listed
Conditions: 310 K; 101.3 kPa; Liquid; Concentric cylinders viscometry; w1 = 0.1

In order of rising viscosity:
1. O=C[C@H](O)[C@@H](O)[C@H](O)[C@H](O)CO [D-glucose] + O  1 ± 0.2 mPa·s
2. OC[C@@H](O)[C@@H](O)[C@H](O)[C@@H](O)CO [D-sorbitol] + O  1.02 ± 0.21 mPa·s
3. OC[C@@H](O)[C@H](O)[C@@H](O)CO [xylitol] + O  1.03 ± 0.21 mPa·s
4. OC[C@@H](O)[C@@H](O)[C@H](O)[C@H](O)CO [mannitol] + O  1.03 ± 0.21 mPa·s
5. O=C(CO)[C@@H](O)[C@H](O)[C@@H](CO)O[C@H]1O[C@H](CO)[C@@H](O)[C@H](O)[C@H]1O [leucrose] + O  1.05 ± 0.21 mPa·s
6. OC[C@H]1O[C@@](CO)(O[C@H]2O[C@H](CO)[C@@H](O)[C@H](O)[C@H]2O)[C@@H](O)[C@@H]1O [D-sucrose] + O  1.06 ± 0.21 mPa·s
7. OC[C@@H](O)[C@@H](O[C@H]1O[C@H](CO)[C@@H](O)[C@H](O)[C@H]1O)[C@H](O)[C@@H](O)CO [4-O-α-D-glucopyranosyl-D-glucitol] + O  1.08 ± 0.22 mPa·s
8. O.O.OC[C@H]1O[C@H](O[C@H]2O[C@H](CO)[C@@H](O)[C@H](O)[C@H]2O)[C@H](O)[C@@H](O)[C@@H]1O [D-(+)-trehalose dihydrate] + O  1.1 ± 0.22 mPa·s
9. O=C[C@H](O)[C@@H](O)[C@H](O[C@@H]1O[C@H](CO)[C@H](O)[C@H](O)[C@H]1O)[C@H](O)CO [4-O-β-D-galactopyranosyl-D-glucose] + O  1.16 ± 0.23 mPa·s
10. O.O.O.O.O.OC[C@H]1O[C@H](OC[C@H]2O[C@H](O[C@]3(CO)O[C@H](CO)[C@@H](O)[C@@H]3O)[C@H](O)[C@@H](O)[C@@H]2O)[C@H](O)[C@@H](O)[C@H]1O [D-raffinose, pentahydrate] + O  1.22 ± 0.25 mPa·s
